PubChem BioAssay (NCI)
Values joined by “and” are separate entries in the source; they are usually repeats but may differ in a detail not shown here. Identical values can stand only once.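 The compound was tested at five concentrations on cells cultured in 96-well plates, with a 48-hour exposure period. The concentration for 50% growth inhibition is given as GI50. Definition used: TGI = concentration required for complete inhibition of growth.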

How the values were obtained:
Assay in all cases: inhibition of tumour cell growth, NCI panel, 48 h
MCF7 breast = system: MCF7 breast
M14 melanoma = system: M14 melanoma
OVCAR-3 ovarian = system: OVCAR-3 ovarian
SK-MEL-28 melanoma = system: SK-MEL-28 melanoma
K-562 leukemia = system: K-562 leukemia
UO-31 renal = system: UO-31 renal

Structure (SMILES) | TGI (MCF7 breast) | TGI (M14 melanoma) | TGI (OVCAR-3 ovarian) | TGI (SK-MEL-28 melanoma) | TGI (K-562 leukemia) | TGI (UO-31 renal) | GI50 (MCF7 breast) | GI50 (M14 melanoma) | GI50 (OVCAR-3 ovarian) | GI50 (SK-MEL-28 melanoma) | GI50 (K-562 leukemia) | GI50 (UO-31 renal)
C=C1C(=O)OC2C1C(OC(=O)/C(C)=C/C)CC(O)(CCl)C1C(O)C=C(C)C21O (centres undefined) | 16.7 µM | 23.8 µM | 27.7 µM | 35 µM | > 100 µM | 33.9 µM | – | – | – | – | – | –
Cc1ccc(C(=O)NCCCOc2ccc(N3C(N)=NC(N)=NC3(C)C)cc2Cl)cc1S(=O)(=O)F | > 100 µM | > 100 µM | > 100 µM | > 100 µM | > 100 µM | > 100 µM | 22.4 µM | 44.7 µM | > 100 µM | 74.7 µM | 8.81 µM | > 100 µM
N#Cc1ccc(-c2c(-c3ncn[nH]3)sc(N3CCOCC3)c2C#N)c(F)c1 | 17.7 µM | – | 7.89 µM | 5.33 µM | > 100 µM | 11.2 µM | 0.135 µM | – | 0.502 µM | 0.458 µM | 5.52 µM | 0.191 µM
Nc1ncnc2c1ncn2C1OC(COS(N)(=O)=O)C(O)C1O (centres undefined) | – | 0.00494 µM and 0.036 µM | – | 0.00521 µM and 0.0509 µM | – | – | – | 0.00214 µM and 0.0181 µM | – | 0.00225 µM and 0.0221 µM | – | –
COc1ccc(C(C)c2cc(OC)c(OC)c(OC)c2)cc1 (centres undefined) | – | – | 0.384 µM | > 50 µM | > 50 µM | > 50 µM | – | – | 0.0889 µM | 25.2 µM | 0.0261 µM | 0.409 µM
CNCC/C=C1\c2cc3c(cc2-c2c1c1cc(OC)c(OC)cc1c(=O)n2C)OCO3 | > 36.9 µM | 17 µM | 17.9 µM | > 69.4 µM | – | > 100 µM | 0.161 µM | 0.621 µM | 1.04 µM | 11.8 µM | 0.196 µM | 0.548 µM
NCCCCCNc1noc(Cc2c[nH]c3cc(Br)ccc23)n1 | 16.3 µM | 10.3 µM | 3.39 µM | 19.3 µM | 14.7 µM | 25.3 µM | 3.42 µM | 0.445 µM | 1.4 µM | 3.93 µM | 0.469 µM | 3.46 µM
CCOC(=O)C(Cc1c[nH]c2cc(N(CCO)CCO)ccc12)(NC(C)=O)C(=O)OCC | 815 µM | > 1000 µM | 726 µM | > 1000 µM | 501 µM | > 1000 µM | 26.6 µM and 135 µM | 517 µM | 186 µM | 636 µM | 81.7 µM | 673 µM
CC(C)(C)c1cc(C(=O)Nc2ccc(C(=O)NCCN)cc2)cc(C(C)(C)C)c1 | – | 3.42 µM | 4.97 µM | 3.67 µM | 5.06 µM | 22 µM | – | 1.71 µM | 2.18 µM | 1.79 µM | 1.94 µM | 4.68 µM
CN1CCN(c2ccc(OC(F)(F)F)c(Nc3ncc4c(n3)-c3c(c(C(N)=O)nn3CCO)CC4)c2)CC1 | 15.7 µM and > 10 µM | – | 18.2 µM and > 10 µM | > 10 µM | 19.6 µM | 38.2 µM and > 9.18 µM | 0.0235 µM and 0.0357 µM | 0.0404 µM and 0.0428 µM | 0.037 µM and 0.0424 µM | 0.738 µM | 0.0375 µM and 0.0269 µM | 2.88 µM and 2.28 µM
Cc1c(Cl)c(=O)oc2cc(OC/C=C3\CCC(=O)O3)ccc12 | 37.8 µM | 31.7 µM | 33.1 µM | 50 µM | 78.7 µM | 25 µM | 13.4 µM | 13.3 µM | 14.7 µM | 19.7 µM | 28.2 µM | 12.1 µM
CCN(CC)c1c(-c2ccccc2)n[nH]c1C(=O)OC | 54.4 µM | 86.9 µM | 36.8 µM | > 100 µM | > 100 µM | > 100 µM | 23.1 µM | 30.1 µM | 15.1 µM | 22.2 µM | 31.2 µM | 46.5 µM
Cc1cc(C(=O)/C=C/c2ccc[nH]2)ccc1-n1ccc(C(F)(F)F)n1 | > 100 µM | > 100 µM | 6.78 µM | > 100 µM | > 100 µM | 2.72 µM | 5.53 µM | 30.7 µM | 2.29 µM | 41.8 µM | 3.43 µM | 1.4 µM
CN(C)C(=O)OCc1nc2c(N3CCOCC3)nc(-c3ccccc3)nc2n1C | 2.09 µM | 1.9 µM | 0.433 µM | 2.9 µM | 3.17 µM | 1.55 µM | 0.427 µM | 0.609 µM | 0.203 µM | 1.55 µM | 0.332 µM | 0.373 µM
Cc1cc(-c2nnc(/C=C/c3ccc4c(c3)OCO4)o2)n[nH]1 | > 50 µM | 21.1 µM | 20.7 µM | > 50 µM | > 50 µM | > 50 µM | 15.1 µM | 6.32 µM | 4.6 µM | 24.1 µM | 1.83 µM | 14.7 µM
C[C@]12CC[C@@H]3c4ccc(O)cc4CC[C@H]3[C@@H]1CC[C@@H]2NS(=O)(=O)c1ccc(Br)cc1 | 4.64 µM | 4.66 µM | 4.43 µM | 5.09 µM | > 100 µM | 4.35 µM | 2.26 µM | 2.14 µM | 2.18 µM | 2.19 µM | 3.08 µM | 1.76 µM
C=CC(COC(=O)C(C)(C)OC(C)=O)c1ccc(OC(=O)C(C)C)c(OC)c1 (centres undefined) | > 22.8 µM | 21.8 µM | 28.9 µM | 35.5 µM | > 63.5 µM | 21.1 µM | – | – | – | – | – | –
O=C1Nc2cc(-c3cccc(O)c3)ccc2/C1=C/c1ccc[nH]1 | 2.44 µM | 3.54 µM | 5.85 µM | 3.59 µM | > 100 µM | 3.78 µM | 0.257 µM | 1.68 µM | 1.43 µM | 1.73 µM | 0.355 µM | 0.359 µM
O=C(Nc1cccc(-n2cc(-c3ccncc3)c(-c3ccc(O)c(Cl)c3)n2)c1)c1ccc2c(c1)OCCO2 | > 100 µM | > 100 µM | – | – | > 100 µM | > 100 µM | 4.24 µM | 5.83 µM | – | – | 4.26 µM | 4.03 µM
O=C(NCCc1ccccc1)Nc1ccc2cc3ccc(NC(=O)NCCc4ccccc4)cc3nc2c1 | 1.2 µM | – | 2.34 µM | 2.8 µM | 35.7 µM | > 100 µM | 0.29 µM | – | 1.04 µM | 1.43 µM | 0.392 µM | > 100 µM
